Legend:
[1] = system: MOLT-4 acute lymphoblastic leukemia cells; assay: Cell viability, tetrazolium-based MTS assay, MOLT-4; conditions: Homo sapiens, MOLT-4, 48 h; read-out: Anti-Cancer Activity EC50 (48 hr), MOLT-4
Procedure: (§1) Acute lymphoblastic leukemia cells (MOLT-4 and RS4;11) were incubated with increasing concentrations of Bcl-xL/Bcl-2 degraders for 48 h. Cell viability was measured by tetrazolium-based MTS assay.

[2] = system: RS4;11 acute lymphoblastic leukemia cells; assay: Cell viability, tetrazolium-based MTS assay, RS4;11; conditions: Homo sapiens, RS4;11, 48 h, read-out: Anti-Cancer Activity EC50 (48 hr), RS4
Procedure: as §1

[3] = system: HUVEC irradiation-induced senescent cells (IR-SC); assay: Senolytic activity, cell viability (PrestoBlue HS), HUVEC IR-SC; format: cell-based; conditions: Homo sapiens, 72 h
Procedure: (§2) To induce senescence in WI-38 and HUVEC, cells were subjected to x-ray irradiation at 20 Gray using X-RAD 320 biological irradiator. Following between 10 to 15 days after irradiation, senescence was induced in cells, and irradiation-induced senescent cells (IR-SC) were then used for cell viability and Western blotting tests.
(§3) WI-38 and HUVEC cells were incubated with increasing concentrations of degraders for 72 h. Cell viability was measured using PrestoBlue HS cell viability reagent.

HUVEC NC = assay: Senolytic activity, cell viability (PrestoBlue HS), HUVEC NC; format: cell-based
Procedure: as §3

[4] = system: WI-38 irradiation-induced senescent cells (IR-SC); assay: Senolytic activity, cell viability (PrestoBlue HS), WI-38 IR-SC; format: cell-based; conditions: Homo sapiens, 72 h
Procedure: as §2, §3

Bcl-xL [5] = target: T1, Bcl-xL (Homo sapiens, UniProt Q07817); assay: Bcl-xL protein degradation in Jurkat cells (immunoblot); format: cell-based; conditions: 16 h
T1 construct: immunoblot after 16 h degrader treatment
Procedure: (§4) Jurkat and Hela cells were incubated with increasing concentrations of test compounds for 16 h. The cells were harvested and lysed in RIPA lysis buffer supplemented with protease and phosphatase inhibitor cocktails. An equal amount of protein (20 μg/lane) was resolved on a pre-cast 4-20% SDS-PAGE gel. Proteins were subsequently transferred to NOVEX PVDF membranes by electrophoresis. The membranes were blocked in blocking buffer (5% non-fat dry milk in TBS-T), and incubated with primary antibodies (at optimized concentrations) overnight at 4° C. After three washings in TBS-T, the membranes were incubated with an appropriate FIRP-conjugated secondary antibody for 1 h at room temperature. After extensive washing for three times, the proteins of interest were detected with ECL western blotting detection reagents and recorded with autoradiography (Pierce Biotech, Rockford, IL, USA). The primary antibodies for Bcl-xL (Cat #2762), Bcl-2 (Cat #2872), Bcl-w (Cat #2724) and β-actin (Cat #4970) were purchased from Cell Signaling Technology. The relative band intensity was measured using ImageJ software and normalized to β-actin.

Bcl-xL [6] = target: T1, Bcl-xL; assay: Bcl-xL protein degradation in Hela cells (immunoblot); format: cell-based; conditions: 16 h
Procedure: as §4

WI-38 NC = assay: Senolytic activity, cell viability (PrestoBlue HS), WI-38 NC; format: cell-based; conditions: Homo sapiens, 72 h
Procedure: as §3

platelets = conditions: animals and/or humans; cited from earlier work

T1 sequence (Q07817 whole entry): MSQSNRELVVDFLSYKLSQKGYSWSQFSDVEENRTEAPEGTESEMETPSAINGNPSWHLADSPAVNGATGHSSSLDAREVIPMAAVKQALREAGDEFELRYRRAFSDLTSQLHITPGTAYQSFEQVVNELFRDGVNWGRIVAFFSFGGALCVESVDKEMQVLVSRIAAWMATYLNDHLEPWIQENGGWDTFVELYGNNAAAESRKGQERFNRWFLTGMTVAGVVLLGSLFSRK
T1 sequence (Q96SW2 whole entry partner): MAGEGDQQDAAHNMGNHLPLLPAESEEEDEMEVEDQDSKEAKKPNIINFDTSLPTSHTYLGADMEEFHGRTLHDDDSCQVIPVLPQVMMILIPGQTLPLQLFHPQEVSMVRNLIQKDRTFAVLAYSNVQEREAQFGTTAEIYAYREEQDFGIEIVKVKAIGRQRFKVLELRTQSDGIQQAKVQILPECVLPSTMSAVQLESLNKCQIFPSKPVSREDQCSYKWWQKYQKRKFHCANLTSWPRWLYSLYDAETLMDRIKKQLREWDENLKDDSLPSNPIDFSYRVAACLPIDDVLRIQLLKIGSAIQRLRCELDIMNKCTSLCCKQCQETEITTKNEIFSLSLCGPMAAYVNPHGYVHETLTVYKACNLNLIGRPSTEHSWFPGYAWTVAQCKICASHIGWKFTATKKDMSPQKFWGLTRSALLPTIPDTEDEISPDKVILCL

EC50 [1] [nM] | EC50 [2] [nM] | SMILES | EC50 [3] [nM] | Senolytic Activity EC50 (72 hr), HUVEC NC (HUVEC NC) | EC50 [4] [nM] | degradation of Bcl-xL (Bcl-xL [5]) | degradation of Bcl-xL (Bcl-xL [6]) | EC50 (WI-38 NC) [nM] | dose-limiting thrombocytopenia (platelets)
< 1 | < 1 | C[C@@]1(CN2CCCN(c3ccc4c(c3)CN(C3CCC(=O)NC3=O)C4=O)CC2)CCC(c2ccc(Cl)cc2)=C(CN2CCN(c3ccc(C(=O)NS(=O)(=O)c4ccc(N[C@H](CCN5CCCOCC5)CSc5ccccc5)c(S(=O)(=O)C(F)(F)F)c4)cc3)CC2)C1 (stereo partly drawn) [Compound 135, N-((4-(((R)-4-(1,4-oxazepan-4-yl)-1-(phenylthio)butan-2-yl)amino)-3-((trifluoromethyl)sulfonyl)phenyl)sulfonyl)-4-(4-(((4R)-4′-chloro-4-((4-(2-(2,6-dioxopiperidin-3-yl)-1-oxoisoindolin-5-yl)-1,4-diazepan-1-yl)methyl)-4-methyl-3,4,5,6-tetrahydro-[1,1′-biphenyl]-2-yl)methyl)piperazin-1-yl)benzamide] | < 1 | ++ (100-10 μM) | 10 to 100 | – | – | – | –
< 1 | < 1 | C[C@@]1(CN2CCC(c3ccc4c(c3)CN(C3CCC(=O)NC3=O)C4=O)CC2)CCC(c2ccc(Cl)cc2)=C(CN2CCN(c3ccc(C(=O)NS(=O)(=O)c4ccc(N[C@H](CCN5CCCOCC5)CSc5ccccc5)c(S(=O)(=O)C(F)(F)F)c4)cc3)CC2)C1 (stereo partly drawn) [Compound 128, N-((4-(((R)-4-(1,4-oxazepan-4-yl)-1-(phenylthio)butan-2-yl)amino)-3-((trifluoromethyl)sulfonyl)phenyl)sulfonyl)-4-(4-(((4R)-4′-chloro-4-((4-(2-(2,6-dioxopiperidin-3-yl)-1-oxoisoindolin-5-yl)piperidin-1-yl)methyl)-4-methyl-3,4,5,6-tetrahydro-[1,1′-biphenyl]-2-yl)methyl)piperazin-1-yl)benzamide] | < 1 | ++ (100-10 μM) | 1 to 10 | degrade Bcl-xL in a dose-dependent manner | degrade Bcl-xL in a dose-dependent manner | – | –
< 1 | < 1 | C[C@@]1(CN2CCN(C(=O)CN3CCN(CC#Cc4ccc5c(c4)CN(C4CCC(=O)NC4=O)C5=O)CC3)CC2)CCC(c2ccc(Cl)cc2)=C(CN2CCN(c3ccc(C(=O)NS(=O)(=O)c4ccc(N[C@H](CCN5CCCOCC5)CSc5ccccc5)c(S(=O)(=O)C(F)(F)F)c4)cc3)CC2)C1 (stereo partly drawn) [Compound 4, N-((4-(((R)-4-(1,4-oxazepan-4-yl)-1-(phenylthio)butan-2-yl)amino)-3-((trifluoromethyl)sulfonyl)phenyl)sulfonyl)-4-(4-(((4R)-4′-chloro-4-((4-(2-(4-(3-(2-(2,6-dioxopiperidin-3-yl)-1-oxoisoindolin-5-yl)prop-2-yn-1-yl)piperazin-1-yl)acetyl)piperazin-1-yl)methyl)-4-methyl-3,4,5,6-tetrahydro-[1,1′-biphenyl]-2-yl)methyl)piperazin-1-yl)benzamide] | – | – | 1 to 10 | degrade Bcl-xL in a dose-dependent manner | degrade Bcl-xL in a dose-dependent manner | > 10000 | –
– | – | CN(C)CC[C@H](CSc1ccccc1)Nc1ccc(S(=O)(=O)NC(=O)c2ccc(N3CCN(Cc4ccccc4-c4ccc(Cl)cc4)CC3)cc2)cc1[N+](=O)[O-] [ABT-737] | – | – | – | – | – | – | dose-limiting thrombocytopenia has been observed
< 1 | < 1 | C[C@@]1(CN2CCN(C(=O)CN3CCN(c4ccc5c(c4)CN(C4CCC(=O)NC4=O)C5=O)CC3)CC2)CCC(c2ccc(Cl)cc2)=C(CN2CCN(c3ccc(C(=O)NS(=O)(=O)c4ccc(N[C@H](CCN5CCCOCC5)CSc5ccccc5)c(S(=O)(=O)C(F)(F)F)c4)cc3)CC2)C1 (stereo partly drawn) [Compound 1, N-((4-(((R)-4-(1,4-oxazepan-4-yl)-1-(phenylthio)butan-2-yl)amino)-3-((trifluoromethyl)sulfonyl)phenyl)sulfonyl)-4-(4-(((4R)-4′-chloro-4-((4-(2-(4-(2-(2,6-dioxopiperidin-3-yl)-1-oxoisoindolin-5-yl)piperazin-1-yl)acetyl)piperazin-1-yl)methyl)-4-methyl-3,4,5,6-tetrahydro-[1,1′-biphenyl]-2-yl)methyl)piperazin-1-yl)benzamide] | – | – | 1 to 10 | degrade Bcl-xL in a dose-dependent manner | degrade Bcl-xL in a dose-dependent manner | > 10000 | –
– | – | CN(C)CC#Cc1ccc(OCCCc2sc(N3CCc4cccc(C(=O)Nc5nc6ccccc6s5)c4C3)nc2C(=O)O)c(F)c1 [Compound A-1155463] | – | – | – | – | – | – | dose-limiting thrombocytopenia has been observed
1 to 10 | 1 to 10 | C[C@@]1(CN2CCC(CN3CCN(c4ccc(NC5CCC(=O)NC5=O)cc4F)CC3)CC2)CCC(c2ccc(Cl)cc2)=C(CN2CCN(c3ccc(C(=O)NS(=O)(=O)c4ccc(N[C@H](CCN5CCCOCC5)CSc5ccccc5)c(S(=O)(=O)C(F)(F)F)c4)cc3)CC2)C1 (stereo partly drawn) [Compound 141, N-((4-(((R)-4-(1,4-oxazepan-4-yl)-1-(phenylthio)butan-2-yl)amino)-3-((trifluoromethyl)sulfonyl)phenyl)sulfonyl)-4-(4-(((4R)-4′-chloro-4-((4-((4-(4-((2,6-dioxopiperidin-3-yl)amino)-2-fluorophenyl)piperazin-1-yl)methyl)piperidin-1-yl)methyl)-4-methyl-3,4,5,6-tetrahydro-[1,1′-biphenyl]-2-yl)methyl)piperazin-1-yl)benzamide] | < 1 | – | 1 to 10 | – | – | > 10000 | –
< 1 | < 1 | C[C@@]1(CN2CCC(CN3CCN(c4ccc5c(c4)C(=O)N(C4CCC(=O)NC4=O)C5)CC3)CC2)CCC(c2ccc(Cl)cc2)=C(CN2CCN(c3ccc(C(=O)NS(=O)(=O)c4ccc(N[C@H](CCN5CCCOCC5)CSc5ccccc5)c(S(=O)(=O)C(F)(F)F)c4)cc3)CC2)C1 (some centres unmarked) [Compound 134] | < 1 | ++ (100-10 μM) | 1 to 10 | – | – | – | –
– | – | Cc1c(S(C)(=O)=O)c(-c2cc(F)cc(N3CCN(c4ccc(NS(=O)(=O)c5ccc(N[C@H](CCN6CCC(O)CC6)CSc6ccccc6)c(S(=O)(=O)C(F)(F)F)c5)cc4)CC3)c2)c(-c2ccc(Cl)cc2)n1C(C)C [BM-1197] | – | – | – | – | – | – | dose-limiting thrombocytopenia has been observed
< 1 | < 1 | C[C@@]1(CN2CCC(CN3CCC(CN4CCN(c5ccc6c(c5)CN(C5CCC(=O)NC5=O)C6=O)CC4)CC3)CC2)CCC(c2ccc(Cl)cc2)=C(CN2CCN(c3ccc(C(=O)NS(=O)(=O)c4ccc(N[C@H](CCN5CCCOCC5)CSc5ccccc5)c(S(=O)(=O)C(F)(F)F)c4)cc3)CC2)C1 (stereo partly drawn) [Compound 12, N-((4-(((R)-4-(1,4-oxazepan-4-yl)-1-(phenylthio)butan-2-yl)amino)-3-((trifluoromethyl)sulfonyl)phenyl)sulfonyl)-4-(4-(((4R)-4′-chloro-4-((4-((4-((4-(2-(2,6-dioxopiperidin-3-yl)-1-oxoisoindolin-5-yl)piperazin-1-yl)methyl)piperidin-1-yl)methyl)piperidin-1-yl)methyl)-4-methyl-3,4,5,6-tetrahydro-[1,1′-biphenyl]-2-yl)methyl)piperazin-1-yl)benzamide] | – | – | 10 to 100 | degrade Bcl-xL in a dose-dependent manner | degrade Bcl-xL in a dose-dependent manner | > 10000 | –
< 1 | < 1 | C[C@@]1(CN2CCC(CN3CCN(c4ccc5c(c4)CN(C4CCC(=O)NC4=O)C5=O)CC3)CC2)CCC(c2ccc(Cl)cc2)=C(CN2CCN(c3ccc(C(=O)NS(=O)(=O)c4ccc(N[C@H](CCN5CCCOCC5)CSc5ccccc5)c(S(=O)(=O)C(F)(F)F)c4)cc3)CC2)C1 (stereo partly drawn) [Compound 11, N-((4-(((R)-4-(1,4-oxazepan-4-yl)-1-(phenylthio)butan-2-yl)amino)-3-((trifluoromethyl)sulfonyl)phenyl)sulfonyl)-4-(4-(((4R)-4′-chloro-4-((4-((4-(2-(2,6-dioxopiperidin-3-yl)-1-oxoisoindolin-5-yl)piperazin-1-yl)methyl)piperidin-1-yl)methyl)-4-methyl-3,4,5,6-tetrahydro-[1,1′-biphenyl]-2-yl)methyl)piperazin-1-yl)benzamide] | < 1 | – | 1 to 10 | degrade Bcl-xL in a dose-dependent manner | degrade Bcl-xL in a dose-dependent manner | > 10000 | –

From patent US20260355323A1, “CEREBLON-RECRUITING BCL-XL/BCL-2 DUAL DEGRADERS” (University of Florida Research Foundation, Incorporated, priority 2022, published 2026)
